According to US20070275382A1, “Biomarkers for the Efficacy of Somatostatin Analogue Treatment” (priority 2003, published 2007):
*1 amine or outer side, *2 acyl side, *3 side chain or, on linkers, in order; H or OH if unused. Where a SMILES comes first, the peptide text is derived from it. Side-chain parts run from the residue outwards. [ ]: non-standard residue; d: D form. The star is where a group is joined. Ethylenediamine = C(CN[*:2])N[*:1]; Hyp = O=C(O)[CH]1C[CH](O)CN1; Phg = N[CH](C(=O)O)c1ccccc1; CO = O=C([*:1])[*:2]; Bn = c1ccc(C*)cc1

System: Pituitary gland
Assay: Microarray gene expression profiling (HG-U95A), pituitary
Format: in vivo, cynomolgus monkeys
Conditions: 100 μg/animal/day s.c., 14 days
Protocol: Origin of tissue and processing. Male and female cynomolgus monkeys received subcutaneously pasireotide (100 μg/animal/day) or the vehicle for 14 days. On day 15, all animals were sacrificed and tissues for RNA extraction were immediately snap-frozen and kept at −80° C. until processing.
RNA expression profiling was conducted by means of the HG-U95A gene expression probe array (Affymetrix; Santa Clara, Calif. USA), containing more than 12,600 probe sets interrogating primarily full-length human genes and also some control probe sets. The experiment was conducted according to the recommendations of the manufacturer. Briefly, total RNA was obtained by acid guanidinium thiocyanate-phenol-chloroform extraction (Trizol®, Invitrogen Life Technologies, San Diego, Calif. USA) from each frozen tissue section. The total RNA was then purified on an affinity resin (Rneasy®, Qiagen) and quantified. Double stranded cDNA was synthesized with a starting amount of approximately 5 μg full-length total RNA using the Superscript® Choice System (Invitrogen Life Technologies, Carlsbad, Calif. USA) in the presence of a T7-(dT)24 DNA oligonucleotide primer. Following synthesis, the cDNA was purified by phenol/chloroform/isoamyl alcohol extraction and ethanol precipitation. The purified cDNA was then transcribed in vitro using the BioArray® High Yield RNA Transcript Labeling Kit (ENZO, Farmingdale, N.Y. USA) in the presence of biotinylated ribonucleotides form biotin labelled cRNA. The labelled cRNA was then purified on an affinity resin (Rneasy®, Qiagen), quantified and fragmented. An amount of approximately 10 μg labelled cRNA was hybridized for 16 hours at 45° C. to an expression probe array. The array was then washed and stained twice with streptavidin-phycoerythrin (Molecular Probes,) using the GeneChip® Fluidics Workstation 400 (Affymetrix, Santa Clara, Calif. USA). The array was then scanned twice using a confocal laser scanner (GeneArray® Scanner, Agilent, Palo Alto, Calif. USA) resulting in one scanned image. This resulting “.dat-file” was processed using the MAS4 program (Affymetrix) into a “.cel-file”. The “.cel file” was captured and loaded into the Affymetrix GeneChip® Laboratory Information Management System (LIMS). The LIMS database is connected to a UNIX Sun Solaris server through a network filing system that allows for the average intensities for all probes cells (CEL file) to be downloaded into an Oracle database (NPGN). Raw data was converted to expression levels using a “target intensity” of 150. The data were evaluated for quality control and loaded in the GeneSpring® software 4.2.4 (Silicon Genetics, Calif. USA) for analysis.
On the human Affymetrix HGU95Av2 chip, probe sets for individual genes contain 20 oligonucleotide pairs, each composed of a “perfect match” 25-mer and a “mismatch” 25-mer differing from the “perfect” match oligonucleotide at a single base. After probe labelling, hybridization, and laser scanning, the expression level was estimated by averaging the differences in signal intensity measured by oligonucleotide pairs of a given probe (AvgDiff value). The fold changes and directions were calculated for selected genes, from the differences of the AvgDiff values between controls and treated.
To identify genes that were impacted by pasireotide, the dataset was initially filtered to exclude in a first wave of analysis, genes whose values were systematically in the lower expression ranges where the experimental noise is high (at least 80 in a number of experiments corresponding to the smallest number of replicas of any experimental point). In a second round of selection a threshold p-value of 0.05 (based on a t-test) identified differences between treated and control based on a two component error model (Global Error Model) and, whenever possible, with a stepdown correction for multi-hypothesis testing (Benjamini and Hochberg false discovery rate). […]

NCCCCC1NC(=O)C(Cc2c[nH]c3ccccc23)NC(=O)C(c2ccccc2)NC(=O)C2CC(OC(=O)NCCN)CN2C(=O)C(Cc2ccccc2)NC(=O)C(Cc2ccc(OCc3ccccc3)cc2)NC1=O (stereo not drawn) [Pasireotide, cyclo[4-(NH2—C2H4—NH—CO—O)Pro-Phg-DTrp-Lys-Tyr(4-Bzl)-Phe]] (cyclo(F[Hyp]([CO-Ethylenediamine])[Phg]WKY(Bn)); configuration not given here)
GFR bound protein 10 transcript fold change (↑ vs control): ↑ x1.5 | GLUR 2, precursor transcript fold change (↑ vs control): ↑ x1.5 | GTP-binding protein 11 transcript fold change (↑ vs control): 11 ↑ x2.5 | Glucagon receptor transcript fold change (↑ vs control): ↑ x7 | IFN stimulated gene transcript fold change (↑ vs control): ↑ x3.5 | IFNγ-inducible protein 30 (IP30) transcript fold change (↑ vs control): 30 (IP30) ↑ x1.5 | IGFBP, acid labile subunit transcript fold change (↑ vs control): subunit ↑ x3.5 | IP3 receptor, type 1 transcript fold change (↑ vs control): ↑ x1.5 | JAK 1 transcript fold change (↑ vs control): JAK 1 ↑ x2 | MAPKKK5 transcript fold change (↑ vs control): MAPKKK5 ↑ x2 | Neuroblastoma-amplified protein transcript fold change (↑ vs control): ↑ x1.5 | PKC inhibitor transcript fold change (↑ vs control): PKC inhibitor ↑ x2 | PP 1, regulatory (inhibitor) subunit 5 transcript fold change (↑ vs control): ↑ x3.5 | PTP, receptor type, T transcript fold change (↑ vs control): ↑ x2 | Programmed cell death 6 transcript fold change (↑ vs control): death 6 ↑ x1.5 | Putative Ca++ transporting ATPase transcript fold change (↑ vs control): ↑ x2 | RAB 5C, member RAS oncogene family transcript fold change (↑ vs control): ↑ x3 | Rab geranyltransferase, β subunit transcript fold change (↑ vs control): β subunit ↑ x2 | Receptor (calcitonin) activity modifying protein 2 precursor transcript fold change (↑ vs control): x3.5 | Receptor tyrosine kinase-like orphan receptor 2 transcript fold change (↑ vs control): receptor 2 ↑ x2 | Regulator of G-protein signalling 9 transcript fold change (↑ vs control): ↑ x2 | S-phase response (cyclin-related) transcript fold change (↑ vs control): (cyclin-related) ↑ x2 | SSTR3 transcript fold change (↑ vs control): SSTR3 ↑ x3 | Thyroid transcription factor 1 transcript fold change (↑ vs control): factor 1 ↑ x2.5 | VEGF B transcript fold change (↑ vs control): VEGF B ↑ x1.5 | 1-PI-4-phosphate 5-kinase isoform C transcript fold change (↓ vs control): kinase isoform C ↓ x1.5 | ATPase, H+/K+ exchanging, α polypeptide transcript fold change (↓ vs control): polypeptide ↓ x5 | Arg PTK-binding protein transcript fold change (↓ vs control): protein ↓ x2.5 | CD36 antigen transcript fold change (↓ vs control): CD36 antigen ↓ x2 | Catenin (cadherin-associated protein), α 1 (102 kD) transcript fold change (↓ vs control): α 1 (102 kD) ↓ x1.5 | Cholecystokinin receptor transcript fold change (↓ vs control): receptor ↓ x4.5 | Cholinergic receptor, muscarinic 3 transcript fold change (↓ vs control): muscarinic 3 ↓ x3 | Cholinergic receptor, nicotinic, β polypeptide 4 transcript fold change (↓ vs control): 4 ↓ x2 | Cyclin F transcript fold change (↓ vs control): Cyclin F ↓ x2 | Dual specificity phosphatase 8 transcript fold change (↓ vs control): phosphatase 8 ↓ x3 | EGFRBP 2 transcript fold change (↓ vs control): EGFRBP 2 ↓ x1.5 | FGFR 2 transcript fold change (↓ vs control): FGFR 2 ↓ x2 | Fms-related tyrosine kinase 1 (VEGF/vascular permeability factor receptor) transcript fold change (↓ vs control): receptor) ↓ x1.5 | Forkhead box O3A transcript fold change (↓ vs control): ↓ x1.5 | G-protein coupled receptor 49 transcript fold change (↓ vs control): receptor 49 ↓ x2 | GTP-binding protein (G protein), q polypeptide transcript fold change (↓ vs control): ↓ x2.5 | GTP-binding protein like-1 transcript fold change (↓ vs control): like-1 ↓ x3 | Gastrin receptor transcript fold change (↓ vs control): Gastrin receptor ↓ x2 | IFNR2 (α, β and ω) transcript fold change (↓ vs control): ↓ x2.5 | IGF-2 transcript fold change (↓ vs control): IGF-2 ↓ x1.5 | IP-4-phosphatase, type 1, isoform b transcript fold change (↓ vs control): type 1, isoform b ↓ x2 | K+ channel, subfamily K, member 3 (TASK) transcript fold change (↓ vs control): ↓ x4 | K+ voltage-gated channel, Shab-related subfamily, member 1 transcript fold change (↓ vs control): ↓ x2 | PDGFβ transcript fold change (↓ vs control): PDGFβ ↓ x2 | PI transfer protein, β transcript fold change (↓ vs control): ↓ x2.5 | PI-3-kinase, catalytic, α polypeptide transcript fold change (↓ vs control): α polypeptide ↓ x3 | PI-3-kinase, catalytic, δ polypeptide transcript fold change (↓ vs control): ↓ x2 | PLCγ 1 transcript fold change (↓ vs control): PLCγ 1 ↓ x1.5 | Phosphatase and tensin homolog (mutated in multiple advanced cancers 1) transcript fold change (↓ vs control): ↓ x3.5 | Rab3 GTPase-activating protein, non catalytic subunit transcript fold change (↓ vs control): catalytic subunit ↓ x2 | Rab geranylgeranyl transferase, α subunit transcript fold change (↓ vs control): ↓ x1.5 | SHB adaptor protein (a Src homology 2 protein) transcript fold change (↓ vs control): ↓ x2.5 | STAT 1, 91kδ transcript fold change (↓ vs control): STAT 1, 91kδ ↓ x2 | Soluble adenylyl cyclase transcript fold change (↓ vs control): cyclase ↓ x2 | TNFR subfamily, member 14; herpesvirus entry mediator transcript fold change (↓ vs control): entry mediator ↓ x2.5 | TNFR-associated factor 2 transcript fold change (↓ vs control): factor 2 ↓ x4 | Thrombospondin-p50 transcript fold change (↓ vs control): ↓ x2
